Laboratory results published in ChEMBL document CHEMBL1122827 (1985).
Active and inactive are the calls of the source. The rule behind the calls is not given here. Where a SMILES comes first, the peptide text is derived from it. The star is where a group is joined. Mob = COc1ccc(C*)cc1; Bn = c1ccc(C*)cc1

What was measured:
Assay type in all cases: functional
[1] = species on record: Cavia porcellus; experiment: Relative affinity in guinea pig ileum(GPI) was determined
[2] = species on record: Cavia porcellus; experiment: Intrinsic activity in guinea pig ileum(GPI) was determined
[3] = species on record: Cavia porcellus; experiment: The concentration required to produce 50% of the maximal effect in guinea pig ileum(GPI)
[4] = species on record: Cavia porcellus; experiment: The concentration required to produce 50% of the maximal effect in guinea pig trachea(GPT) at 10e-4 M; Inactive
[5] = species on record: Oryctolagus cuniculus; experiment: The concentration required to produce 50% of the maximal effect in rabbit mesenteric vein(RMV) at 10e-4 M; Inactive
[6] = species on record: Cavia porcellus; experiment: Relative affinity in guinea pig trachea(GPT) was determined
[7] = species on record: Cavia porcellus; experiment: Intrinsic activity in guinea pig trachea(GPT) was determined
[8] = species on record: Cavia porcellus; experiment: The concentration required to produce 50% of the maximal effect in guinea pig trachea(GPT)
[9] = species on record: Oryctolagus cuniculus; experiment: Intrinsic activity in rabbit mesenteric vein(RMV) was determined
[10] = species on record: Oryctolagus cuniculus; experiment: Relative affinity in rabbit mesenteric vein(RMV) was determined
[11] = species on record: Oryctolagus cuniculus; experiment: The concentration required to produce 50% of the maximal effect in rabbit mesenteric vein(RMV)

Row | SMILES | AR [1] | Alpha E [2] | pD2 [3] | pD2 [4] | pD2 [5] | AR [6] | Alpha E [7] | pD2 [8] | Alpha E [9] | AR [10] | pD2 [11]
1 | CC(C)C[C@@H]1NC(=O)CNC(=O)[C@H](Cc2ccccc2)NC(=O)[C@H](Cc2ccccc2)NC(=O)[C@@H](N)CSSC[C@@H](C(N)=O)NC1=O | 0.02 | 0.7 | 4.83 | – | – | – | – | – | – | – | –
2 | CC(C)C[C@H]1NC(=O)CNC(=O)[C@@H](Cc2ccccc2)NC(=O)[C@H](Cc2ccccc2)NC(=O)[C@@H](N)CSSC[C@H](C(N)=O)NC1=O | – | – | – | inactive | inactive | – | – | – | – | – | –
3 | COc1ccc(CSC[C@H](N)C(=O)N[C@@H](CCC(N)=O)C(=O)N[C@@H](Cc2ccccc2)C(=O)N[C@@H](Cc2ccccc2)C(=O)NCC(=O)N[C@@H](CC(C)C)C(=O)N[C@@H](CSCc2ccccc2)C(N)=O)cc1 (H-C(Mob)QFFGLC(Bn)-NH2) | 0.8 | 1.2 | 6.37 | – | – | 3 | 0.8 | 5.22 | 0.4 | 2.8 | 5.98
